“Also recorded” adds a separate entry of the source.
Experiments:
germline ε promoter = test: GFP reporter assay of IL-4 induced ε promoter-driven transcription in naive A5T4 cells (phenotype transfer); type: cell-based; settings: for activity in blocking epsilon promoter transcription (GFP reporter) when presented in the mutant intein context: mutant intein construct; for activity in blocking epsilon promoter transcription (GFP reporter) when presented in the mutant intein context / Mutant Reporter Ratio (± std) / Wild-Type Reporter Ratio (± std): naive A5T4 cells; for Mutant Reporter Ratio (± std): mutant intein construct (non-cyclic, splicing-deficient), IL-4 stimulated, GFP fluorescence; for Wild-Type Reporter Ratio (± std): wild-type intein construct (cyclic peptide), IL-4 30 U/ml, GFP fluorescence BFP−/BFP+, average of 3 values
Source text: To establish the A5T4 reporter cell line, BJAB cells were infected with a retroviral vector containing an IL-4 responsive 600 bp fragment of the epsilon promoter (Pε) followed by a fusion nucleic acid encoding HBEGF-2a-GFP and a polyadenylation sequence cloned in the reverse orientation into pCGSin (Lorens et al., 2000, Mol. Ther. 1:438-447). Infected cells were induced with IL-4 and single cell sorted by FACS for GFP reporter expression. One of the cell clones identified with the desired profile was designated A5. This cell line was infected with the CtTAIH retroviral vector expressing tTA-VP16 ires hygromycin phosphotranferase gene (Lorens et al., 2000, Virology 272:7) selected with hygromycin and single cell cloned. The clone selected for the screening cell line was characterized for tetracycline regulation and was designated A5T4.
Referring to FIG. 9 or 10, after single cell clones had expanded, cells were replica-plated and grown in the presence or absence of 100 ng/ml Dox for 4 days. Both plates were then stimulated with IL-4 (30 U/ml) and, after 3 more days, both populations were analyzed by FACS to measure GFP fluorescence. FACS data were converted to reporter ratios, which are defined as the ratio of the geometric mean of GFP fluorescence of the +IL-4/+Dox (peptide off) population over the geometric mean of the +IL-4/−Dox (peptide on) population. Cells expressing a cyclic peptide that inhibits germline ε transcription have reporter ratios of >1.1, typically >1.12, >1.13, >1.14 or >1.15.
Phoenix packaging cells were transfected with the retroviral vector illustrated in FIG. 6A encoding a particular cyclic peptide as described in WO 97/27213. Naïve A5T4 cells were infected with the resultant retrovirons and grown for three days. The infected cells (BFP^+) were stimulated with IL-4 (30 U/ml) and, after three days, were assessed by FACS for BFP and GFP fluorescence.
The GFP fluorescence data corresponding to the BFP^−/BFP^+in the presence of IL-4 stimulation were obtained for 34 clones and reporter ratios were calculated therefrom. […] Three others had reporter wt ratios in the range of about 1.12-1.2. The names of the clones, sequences of the regions of the polynucleotides encoding the cyclic peptides SEQ ID NOS:1-23, the sequences of the expressed cyclic peptides SEQ ID NOS:1-23 and their respective reporter ratios are provided in TABLE 1, below (“wild-type” reporter ratios; each reporter ratio is the average of 3 values):
As discussed previously, intein splicing is dependent upon the presence of nucleophilic residues at the splice junctions (underlined in FIG. 6A; see Perler & Adam, 2000, Curr. Opin. Biotechnol. 11:377-383). To confirm that the inhibitory activity of the clones of TABLE 1 was due to the expression of a cyclic peptide, mutants were created that lacked the ability to catalyze the splicing reaction due to the replacement of these three critical underlined nucleophilic residues with alanines. These mutants (illustrated in FIG. 6B) were then used to infect naive A5T4 cells as described above.

[1] = test system: endogenous germline ε promoter; test: Quantitative real time PCR (Taqman) of endogenous germline ε transcript in A5T4 cells; type: cell-based; settings: mutant intein context, +IL-4
Method: The ability of cyclic peptides SEQ ID NOS:1-20 to inhibit transcription of an endogenous germline ε promoter was confirmed using quantitative real time PCR (Taqman®; Applied Biosystems, Foster City, Calif.). Briefly, A5T4 cells were infected with retrovirus capable of expressing the cyclic peptides (prepared as described above). Cells were first sorted for BFP to ensure that they were retrovirally infected. Several different assay conditions were tested: −Dox/-IL-4, −Dox/+IL-4, +Dox/-IL-4, +Dox/+IL-4. All experiments were conducted in triplicate. BFP positive sorted cells were thereafter maintained in Dox (peptide off). To obtain the −Dox condition, cells were washed 2× with media and maintained in Dox-free culture for 72 hours. Cells in +/−Dox were split to 50,000 cells per ml. The following day, IL-4 was added (30 units/ml) and cells were incubated for 3 days before FACS analysis and pelleting for RNA extraction. The primers and probe used were as follows (the probe was labeled at the 5′-end with Fam and at the 3′-end with Tamra):
The probe spans a splice junction and thus will not detect contaminating DNA in the reaction assay. […] The epsilon inhibition ratio R was calculated by dividing the transcript expression values in the presence of Dox and IL-4 (+IL-4/+Dox) by values in the absence of Dox and presence of IL-4(+IL-4/−Dox). […]

Row | Substance | activity in blocking epsilon promoter transcription (GFP reporter) when presented in the mutant intein context (germline ε promoter) | Mutant Reporter Ratio (± std) (germline ε promoter) | Wild-Type Reporter Ratio (± std) (germline ε promoter) | block of endogenous ε-transcription [1] | inhibition of ε-promoter induction (germline ε promoter; net increase of geometric mean GFP fluorescence following IL-4 stimulation, BFP+ vs uninfected population, wild-type intein)
1 | cyclo(S E M F S I Q) | inactive | 1.13 ± 0.03 | 1.28 ± 0.03 |  | 
2 | cyclo(S S C M R) |  | 1.20 ± 0.12 | 1.12 ± 0.03 |  | 
3 | cyclo(S R N W S H) | inactive | 1.06 ± 0.04 | 1.18 ± 0.04 |  | 
4 | cyclo(S N F T F) | inactive; also recorded: did not strongly block | 1.08 ± 0.05 | 1.28 ± 0.05 | clearly blocked | 
5 | cyclo(S V V T R) | remained active | 1.26 ± 0.03 | 1.19 ± 0.03 |  | 
6 | cyclo(S S F T) |  | 1.05 ± 0.04 | 1.10 ± 0.03 |  | 
7 | cyclo(S L N R I) | remained active | 1.40 ± 0.08 | 1.45 ± 0.07 |  | 
8 | cyclo(S G A D S) | inactive | 1.08 ± 0.05 | 1.23 ± 0.02 |  | 
9 | cyclo(S R R D R I) | inactive | 1.08 ± 0.04 | 1.31 ± 0.03 |  | 
10 | cyclo(S D H S Q) | inactive | 1.06 ± 0.06 | 1.20 ± 0.04 |  | 
11 | cyclo(S R V E I) | No significant difference; also recorded: inactive | 1.06 ± 0.06 | 1.53 ± 0.16 |  | 51%
12 | cyclo(S Y S Q) | inactive | 1.07 ± 0.01 | 1.18 ± 0.01 |  | 
13 | cyclo(S F G R S) | inactive | 1.08 ± 0.06 | 1.20 ± 0.02 |  | 
14 | cyclo(S R R H C C H) |  | 1.02 ± 0.03 | 1.09 ± 0.03 |  | 
15 | cyclo(S F V T W) | decrease in activity | 1.25 ± 0.06 | 1.46 ± 0.12 |  | 
16 | cyclo(S W A Q A) | inactive | 1.10 ± 0.04 | 1.25 ± 0.02 |  | 
17 | cyclo(S V I E Q) | decrease in activity | 1.14 ± 0.04 | 1.22 ± 0.04 |  | 
18 | cyclo(S T G P R) | remained active | 1.18 ± 0.04 | 1.19 ± 0.03 |  | 
19 | cyclo(S P W K L V G) | inactive | 1.02 ± 0.06 | 1.27 ± 0.03 |  | 
20 | cyclo(S N I P Q) | inactive | 1.10 ± 0.02 | 1.20 ± 0.01 |  | 
21 | cyclo(S S L R W) | decrease in activity | 1.21 ± 0.02 | 1.31 ± 0.05 |  | 
22 | cyclo(S Y F T S C W) | decrease in activity | 1.27 ± 0.01 | 1.36 ± 0.07 |  | 
23 | cyclo(S A R F V) | decrease in activity | 1.43 ± 0.03 | 1.52 ± 0.04 |  | 
